Consider 14 compounds from US6887873B2, “Triazine derivatives and their application as antitelomerase agents” (Aventis Pharma S.A., priority 2001, dated 2005).

SMILES strings stand for the structures.

Assay [1] concerns human telomerease (HL60 cell extract). Briefly: Antitelomerease activity: extension of oligonucleotide TS followed by PCR amplification, with HL60 extract. It counts as biochemical. Conditions: read-out: TRAP IC50. Summed up: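 HL60 CHAPS-lysate extract extends TS primer (15 min, 30 °C) with compound at 10, 1, 0.1 and 0.01 µM, followed by 30-cycle PCR with TS and CXext. Products resolved on 12% acrylamide and quantified; % inhibition versus enzyme control and blank, IC50 read from semilog plot.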

For assay [2], the system named is G-quadruplex of oligonucleotide GGGTTAGGGTTAGGGTTAGGG (3.5 repeats of the human telomereic motif). Put plainly: G-quadruplex stabilizing activity, fluorescence Tm (FAM+DABCYL oligonucleotide). It counts as binding. Summed up: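 FAM/DABCYL-labelled telomeric oligonucleotide (0.2 μM strand) in 10 mM sodium cacodylate pH 7.6 with 0.1 M LiCl (or NaCl) was annealed, then incubated ≥1 h at 20 °C with compound at 1 μM final. Samples were heated 20→80 °C, with excitation at 470 nm and emission at 515/588 nm. Tm is the 515 nm emission midpoint.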

For the compound `Cc1cc(N)c2cc(Nc3nc(Nc4ccc5nc(C)cc(N)c5c4)nc(NC4CN5CCC4CC5)n3)ccc2n1` (stereo not shown) [Example 17, 2,4-bis(4-amino-2-methylquinolin-6-yl)amino-6-(quinuclidin-3-yl)amino-[1,3,5]triazine], in assay [1], the IC50 came to 100 nM. For the same compound, in assay [2], the “G4 delta Tm” value turned out to be 17.1 °C.
In the same order, the values of `Cc1cc(N(C)C)c2cc(Nc3nc(Nc4ccc5nc(C)cc(N(C)C)c5c4)nc(Oc4ccncc4)n3)ccc2n1` [Example 115, 2,4-bis(4-dimethylamino-2-methylquinolin-6-yl)amino-6-(pyridin-4-yl)oxy-[1,3,5]triazine] are 500 nM and 13 °C.
On the same counts, the results for `CCCN(CCC)CCN1CCN(c2nc(Nc3ccc4nc(C)cc(N(C)C)c4c3)nc(Nc3ccc4nc(C)cc(N(C)C)c4c3)n2)CC1` [Example 137, 2,4-bis(4-dimethylamino-2-methylquinolin-6-yl)amino-6-[1-(2-dipropylaminoethyl)piperazin-4-yl]-[1,3,5]triazine] are 1000 nM and 16 °C.
In the same order, the values of `Cc1cc(N)c2cc(Nc3nc(Nc4ccc5nc(C)cc(N)c5c4)nc(N4CCN(C5CCCCCCC5)CC4)n3)ccc2n1` [Example 77] are 480 nM and 12.5 °C.
Turning to `Cc1cc(N(C)C)c2cc(Nc3nc(Nc4ccc5nc(C)cc(N(C)C)c5c4)nc(C4CCN(C)CC4)n3)ccc2n1` [Example 19, 2,4-bis(4-dimethylamino-2-methylquinolin-6-yl)amino-6-(1-methylpiperidin-4-yl)-[1,3,5]triazine], the IC50 in assay [1] worked out at 530 nM. Also, the “G4 delta Tm” value in assay [2] is 3.5 °C.
On the same counts, the results for `Cc1cc(N(C)C)c2cc(Nc3nc(Nc4ccc5nc(C)cc(N(C)C)c5c4)nc(N4CCN(c5ccncc5)CC4)n3)ccc2n1` [Example 144, 2,4-bis(4-dimethylamino-2-methylquinolin-6-yl)amino-6-[1-(pyridin-4-yl)piperazin-4-yl]-[1,3,5]triazine] are 400 nM and 22.5 °C.
In the same order, the values of `Cc1cc(N(C)C)c2cc(Nc3nc(NCCCN(C)C)nc(Nc4ccc5nc(C)cc(N(C)C)c5c4)n3)ccc2n1` [Example 1, 2,4-bis(4-dimethylamino-2-methylquinolin-6-yl)amino-6-(3-dimethylaminopropyl)amino-[1,3,5]triazine] are 550 nM and 11.3 °C.
On the same counts, the results for `Cc1cc(N)c2cc(Nc3nc(Nc4ccc5nc(C)cc(N)c5c4)nc(Oc4ccccc4Cl)n3)ccc2n1` [Example 103] are 280 nM and 7 °C.
In the case of `COc1ccc(CSc2nc(Nc3ccc4nc(C)cc(N)c4c3)nc(Nc3ccc4nc(C)cc(N)c4c3)n2)cc1` [Example 124], in assay [1], the IC50 stood at 900 nM. Besides, the “G4 delta Tm” value in assay [2] amounted to 3 °C.
In the same order, the values of `Cc1cc(N(C)C)c2cc(Nc3nc(Nc4ccc5nc(C)cc(N(C)C)c5c4)nc(N4CCCN(CCCN5CCCC5)CC4)n3)ccc2n1` [Example 139] are 600 nM and 18.5 °C.
In the same order, the values of `Cc1cc(N(C)C)c2cc(Nc3nc(Nc4ccc5nc(C)cc(N(C)C)c5c4)nc(N4CCN(CCOCCO)CC4)n3)ccc2n1` [Example 141, 2,4-bis(4-dimethylamino-2-methylquinolin-6-yl)amino-6-{[1-2-(2-hydroxyethyl)oxyethyl]piperazin-4-yl}-[1,3,5]triazine] are 900 nM and 7 °C.
On the same counts, the results for `Cc1cc(N)c2cc(Nc3nc(Nc4ccc5nc(C)cc(N)c5c4)nc(N4CCN(C(=O)c5ccco5)CC4)n3)ccc2n1` [Example 68] are 300 nM and 8 °C.
Regarding `Cc1cc(N(C)C)c2cc(Nc3nc(Nc4ccc5nc(C)cc(N(C)C)c5c4)nc(N4CCN(C5CCCC5)CC4)n3)ccc2n1` [Example 143], the IC50 in assay [1] worked out at 400 nM. Further, in assay [2], the “G4 delta Tm” value was 13 °C.
Turning to `Cc1cc(N)c2cc(Nc3nc(Nc4ccc5nc(C)cc(N)c5c4)nc(OCCN(C)Cc4ccccc4)n3)ccc2n1` [Example 105], the half-maximal inhibitory concentration (IC50) in assay [1] is 240 nM. Also, in assay [2], the “G4 delta Tm” value is 12 °C.

As usually defined, the IC50 is the concentration that inhibits the measured activity by half.
